In US20060099712A1, “Correlation of anti-cancer activity of dyes with redox potentials” (Eastman Kodak Company, priority 2004, published 2006):

Test system: CX-1 Human Colon Carcinoma
Assay: Clonogenic dye screening assay, CX-1 cells (IC50)
Format: cell-based
Design: CX: unit not given here
Conditions: for CX (IC50 in the CX-1 cell line): 3 hrs treatment, colonies after 7-10 days, unit from method b117-118; for CV/CX (selectivity, kill ratio): ratio of IC50 in normal CV-1 line to IC50 in carcinoma CX-1 line; for CX: CX-1 cells; for CV/C: selectivity ratio, value of 1 where dye inactive
From the text: CX-1 is a cancerous human colon adenocarcinoma cell line. CV-1 is a non-cancerous control, which is a kidney epithelial cell line from an African green monkey. IC50 is the dye concentration at which 50% of the cells are killed. Selectivity or kill ratio is defined as the ratio of […] at IC50 for both CX-1 and CV-1. A ratio with a high number indicates a high selectivity.
The dyes were screened in two cell lines. CX-1 is a human colon adenocarcinoma cell line. CV-1 is a kidney epithelial cell line from an African green monkey. CV-1 was used as a reference because no normal human epithelial cell line is available for clonogenic assay.
In the initial screen, dyes were examined at six different concentrations to generate a dose response curve. An IC50 value, the concentration at which 50% of the cells are killed, was then calculated. Initially, a dye concentration of 1.0 μg/mL was the highest examined for the CX-1 cell line and 0.005 μg/mL was the lower limit. The corresponding limits on the CV-1 cell line were […].
The screening procedure used a response curve that was determined from eight dye concentrations. The upper and lower limits of CX-1 were 0.32 and 0.0015 μg/mL, respectively, and the corresponding revised limits on CV-1 were 3.2 and 0.025 μg/mL. The screening results were reported by assigning an IC50 value to each dye for the CV-1 and CX-1 cell lines. These values will be referred to herein simply as CV and CX. The most desirable result would be to have a dye that was highly toxic to carcinoma cells but nontoxic to ‘normal’ cells. One measure of this type of selectivity is the ratio of the IC50's in the normal cell line to that in the carcinoma line, CV/CX.
Compounds are screened via an in vitro assay. CV-1 and CX-1 cells are seeded into separate assay plates. The plates are treated with varying concentrations of test compounds, rinsed, and colonies allowed to grow. IC50's are determined and drugs evaluated based on their selectivity and toxicity. Assay Steps: • I. Seeding Cells • II. Weighing • III. Preparation of Solution • IV. Treatment • V. Rinsing and Feeding • VI. Fixing • VII. IC50 Determination I. Seeding Cells
The cells should be seeded 16-30 hours before treatment. The media for CV-1 cells is DME+5% calf serum +5% Nuserum. The media for CX-1 cells is RPMI/DME (50/50)+5% calf serum +5% Nuserum.
(c) number of cells based on 2000 CX-1 cells/well and 1000 CV-1 cells/well. NOTE: Always make enough cell suspension for 1 extra plate to allow for volume loss during transfers.
• (a) For CV-1: 256 ug/ml-256 ul of 1 mg/ml stock +744 ul DMSO • (b) For CX-1: 25.6 ug/ml-100 ul of 256 ug/ml+900 ul DMSO IV. Treatment • 1. Each plate is treated with 4 test compounds, one positive control and one negative control. • 2. Serial dilutions of the compounds are made in the following way:
2 multi-well pipetters are used. One is set for 10 ul and one for 200 ul. Each is equipped with 6 tips spaced such that they fit into the 6 rows of a plate. 390 ul of media is added to the first column of each plate. 10 ul each of 4 compound solutions, a positive and a negative control are taken up and put into the first column of wells. The 200 ul pipetter is then placed in the same wells, pipetted up and down 3 times and two 200 ul aliquots are moved to the next column of wells. This column is pipetted up and down 3 times and 400 ul moved to column 3, etc. The final 400 ul excess from column 8 is discarded.
• 3. Label the plates along the front, each row −1 compound. • 4. Incubate the plates at 37° C. for 3 hrs. V. Rinsing • 1. Prepare several bottles of CX-1 and CV-1 media. • 2. Check for precipitate in first column of each plate and note. • 3. Starting with the plates treated first, rinse several plates at a time by aspirating the treatments and refilling each well with 0.5-1.0 ml of the rinse media. Aspirate and refill 2 more times for a total of 3 rinses. • 4.

[1] = Table XVI, selectivity ratio of IC50 values
[2] = Table XXI, oxathiacarbocyanine nitrogen substituents
[3] = Table XVII, benzotellurazole derivatives
[4] = Table XVII, selectivity ratio of IC50 values
[5] = Table XX, thiacarbocyanine nitrogen substituents
[6] = Table XX, ratio given a value of 1 where dye inactive

Structure (SMILES)	CX (IC50 in the CX-1 cell line) [µg/mL]	CV/CX (selectivity, kill ratio)	other results
CN1/C(=C/C(=C/c2sc3ccc4ccccc4c3[n+]2C)c2ccccc2)Oc2ccc3ccccc3c21 [drawing 40|M|Ph]	0.03	10.0	
CN1C(=CC=Cc2[te]c3ccccc3[n+]2C)[Te]c2ccccc21 [Dye B19682]			CX (Table XV, symmetrical dyes): 0.3; CV/CX (Table XV, selectivity ratio of IC50 values): 16.7
CCN1/C(=C\C=C\c2[se]c3ccccc3[n+]2CC)Sc2cc(O)c(O)cc21 [drawing 42|H|5,6-OH]	0.300		
CCN1C(=CC=Cc2oc3ccccc3[n+]2CC)Oc2ccccc21 [drawing 45|H|H]	0.10	30.0	
CCN1/C(=C/C=C/c2sc3ccccc3[n+]2CCS(=O)(=O)CC)Oc2ccccc21 [drawing 37|CCSO2CC|Et]	0.3	>33.3	
CSCCN1/C(=C\C=C\c2sc3ccccc3[n+]2CCSC)Sc2ccccc21 [drawing 36|CCSMe|CCSMe]	0.015	12	
CCN1/C(=C\C=C\c2sc3ccccc3[n+]2CC)Oc2ccc(Cl)cc21 [drawing 44|Et|H|5-Cl]		27.3	
CCN1C(=CC=Cc2oc3ccc(OC)cc3[n+]2CC)Oc2ccc(OC)cc21 [drawing 45|5-MeO|5-MeO]	0.31	5.16	
CCN1C2=C(CCc3ccccc32)S/C1=C\C=C\c1sc2c([n+]1CC)-c1ccccc1CC2 [drawing 43|E|4,5-H|4,5-H]	0.006	8.33	
CCN1C(=CC(C)=Cc2sc3ccccc3[n+]2CC)Sc2ccccc21 [drawing 38|E|H|Me|H]		8.0	
CCN1/C(=C\C=C\c2[se]c3ccccc3[n+]2CC)Sc2cc(O)c(O)cc21 [drawing 46|Se|S|H|5,6-OH]	0.30	33.3	
CCN1C(=CC=Cc2sc3ccccc3[n+]2CC)N(CC)c2cc(Cl)c(Cl)cc21 [benzimidazole(5,6-Cl)]			CX (Table XVI, unsymmetrical dyes): 0.260; CV/CX [1]: 0.8
CCN1C=C(c2ccccc2)O/C1=C\C=C\c1oc(-c2ccccc2)c[n+]1CC.[I-] [Dye D-118]	0.08	93.75	
CCN1/C(=C/C=C/c2sc3ccccc3[n+]2CCC=NNC(N)=S)Oc2ccccc21 [R1=CCC═NNC(═S)N, R2=Et]			CX [2]: >1.0; CV/C (Table XXI): 1.0
CCN1/C(=C/C(=C/c2[te]c3ccc(OC)cc3[n+]2CC)c2ccccc2)Sc2ccccc21 [R=E, X=S, Z1=5-MeO, R2=Ph, Z2=H]			CX [3]: 0.3; CV/CX [4]: 26.6
CCN1C(=CC=Cc2sc3ccc(Cl)cc3[n+]2CC)Sc2ccccc21 [drawing 41|Et|5-Cl|H]	0.02	40.0	
CCSC(=Cc1sc2ccccc2[n+]1CC)C=C1Sc2ccccc2N1CC [drawing 38|E|H|Set|H]	0.04	15.0	
OCCN1/C(=C/C=C/c2sc3ccccc3[n+]2CCO)Sc2ccccc21 [R1=CCOH, R2=CCOH]			CX [5]: >0.32; CV/CX [6]: 1.0
CCN1/C(=C/C=C/c2oc3cc4c(cc3[n+]2CC)OCO4)Oc2cc3c(cc21)OCO3 [drawing 45|5,6-OCO—|5,6-OCO—]	0.08	5.0	
CCN1/C(=C/C(C)=C/c2[te]c3ccc(C)cc3[n+]2CC)Sc2ccccc21 [R=E, X=S, Z1=5-Me, R2=Me, Z2=H]			CX [3]: 0.03; CV/CX [4]: 26.6

Structure (SMILES)	CX (IC50 in the CX-1 cell line) [µg/mL]	CV/CX (selectivity, kill ratio)	other results
CCN1/C(=C/C=C/c2sc3ccccc3[n+]2CCC=O)Oc2ccccc21 [drawing 37|CCC═O|Et]	0.1	50.0	
COc1ccc2c3c(ccc2c1)S/C(=C\C=C\c1sc2ccc4cc(OC)ccc4c2[n+]1C)N3C [drawing 43|M|7-MeO|7-MeO]	0.09	35.5	
CC[n+]1c(/C=C/C=C2\Oc3ccccc3N2CC(=O)c2ccccc2)sc2ccccc21 [R1=Et, R2=C(C═O)Ph]			CX [2]: 0.8; CV/C (Table XXI): 3.7
CCN1/C(=C/C=C/c2oc3ccc(-c4ccccc4)cc3[n+]2CCNC(C)=O)Sc2ccc(OC)cc21.F[B-](F)(F)F [Dye D-154]	0.05	160	
CCC(=Cc1sc2ccccc2[n+]1CC)C=C1Oc2ccccc2N1CC [drawing 39|E|H|Et]	0.03	33.3	
CCN(CC)CCN1/C(=C/C=C/c2oc3ccccc3[n+]2CC)Sc2ccccc21.I.[I-] [Dye D-116]		80	
CCC(=Cc1sc2ccccc2[n+]1C)C=C1Sc2ccccc2N1C [drawing 38|M|H|Et|H]		14.0	
CN1/C(=C/C=C/c2sc3c(F)c(F)c(F)c(F)c3[n+]2C)Sc2c(F)c(F)c(F)c(F)c21 [drawing 41|Me|4,5,6,7-F|4,5,6,7-F]	>0.32	10.0	
CSCCN1C(=CC=Cc2sc3ccccc3[n+]2CCSC)Sc2ccccc21 [R1=CCSMe, R2=CCSMe]			CX [5]: 0.015; CV/CX [6]: 12.0
CCN1/C(=C/C=C/c2sc3ccccc3[n+]2CC(=O)c2ccc(O)c(O)c2)Oc2ccccc21 [R1=CC(═0)Ph-3,4-OH, R2=Et]			CX [2]: >1.0; CV/C (Table XXI): 1.0
CCN1/C(=C/C=C/c2sc3ccc4ccccc4c3[n+]2CC)Sc2ccc3ccccc3c21 [drawing 43|E|H|H]	0.3	6.7	
CCN1C(=CC=Cc2[te]c3ccccc3[n+]2CC)[Te]c2ccccc21 [drawing 46|Te|Te|H|H]	0.30	16.7	
CC[n+]1c(/C=C/C=C2C=CN(C)c3ccccc32)sc2ccccc21 [Dye 4-quinoline]			CX (Table XVI, unsymmetrical dyes): 0.01; CV/CX [1]: 40.0
CCN1/C(=C/C(=C/c2[te]c3ccc(C)cc3[n+]2CC)c2ccccc2)Sc2ccccc21 [R=E, X=S, Z1=5-Me, R2=Ph, Z2=H]			CX [3]: 0.3; CV/CX [4]: 30.0
CN1/C(=C/C=C/c2sc3ccccc3[n+]2C)Sc2ccc3ccccc3c21 [naphtho/1,2/thiazole (R=M)]			CX (Table XVI, unsymmetrical dyes): <0.005; CV/CX [1]: 10.0
CCN1/C(=C/C=C/c2sc3cc(Cl)ccc3[n+]2CC)Sc2cc(Cl)ccc21 [Dye D-105]	0.008	112.5	Selectivity (Table 1, cell line not given, values equal CV/CX of Table II): 112.5
CCN1/C(=C/C=C/c2sc3ccccc3[n+]2CC)Oc2cccc(O)c21 [drawing 44|E|H|4-OH]		0.43	
CCN1/C(=C/C(=C/c2sc3ccc4ccccc4c3[n+]2CC)SC)Oc2ccc3ccccc3c21 [drawing 40|E|SMe]	0.04	5.0	
CCN1/C(=C/C=C/c2sc3ccccc3[n+]2CC(=O)c2ccccc2)Oc2ccccc21 [drawing 37|CC(═O)Ph|Et]	0.3	10.0	
